Measurements reported in patent US20130302442A1, “METHODS OF USING (4S,4AS,5AR,12AS)-4-DIMETHYLAMINO-3,10,12,12A-TETRAHYDROXY-7-[(METHOXY(METHYL)AMINO)-METHYL]-1,11-DIOXO-1,4,4A,5,5A,6,11,12A-OCTAHYDRO-NAPHTHACENE-2-CARBOXYLIC ACID AMIDE” (priority 2012, published 2013).
≈ marks a conversion by molar mass, not a printed value. Like-named read-outs stand apart in the source and are kept apart here.

Key:
Chlamydia pneumoniae = test: Susceptibility testing (MIC, MBC) of 10 isolates of C. pneumoniae in HEp-2 cells; type: cell-based
Bifidobacterium longum = test: In vitro MIC testing against anaerobic bacteria; type: cell-based; conditions: ATCC15707; Bifidobacterium longum 3968, ATCC 15707
Staphylococcus aureus = test: Inhibition of macromolecular synthesis in Staphylococcus aureus (whole-cell assay); type: cell-based; conditions: S. aureus, at 8-fold the MIC
Chlamydia trachomatis [1] = test: Susceptibility testing (MIC, MBC) of 10 isolates of C. trachomatis in HEp-2 cells; type: cell-based
[2] = tested on: bacterial protein synthesis (synthesis of reporter protein); test: In vitro cell-free bacterial transcription and translation assay; type: biochemical; conditions: cell-free bacterial transcription and translation assay (Promega); read-out: IC50, inhibition of the synthesis of reporter protein
[3] = tested on: Peptostreptococcus micros; test: In vitro MIC testing against anaerobic bacteria; type: cell-based; conditions: Parvimonas micra
P. acnes = test: In vitro MIC testing, antibacterial spectrum of activity; type: cell-based, Propionibacterium acnes; conditions: for MIC50: read-out: MIC50; for MIC90: read-out: MIC90
[4] = tested on: Peptostreptococcus anaerobius; test: In vitro MIC testing against anaerobic bacteria; type: cell-based
[5] = tested on: Streptococcus constellatus; test: In vitro MIC testing against anaerobic bacteria; type: cell-based
[6] = tested on: hospital-associated methicillin-resistant S. aureus (MRSA-HA); test: In vitro MIC against isolates of MRSA-HA; type: cell-based, Staphylococcus aureus; conditions: MRSA-HA (33 isolates)
[7] = tested on: methicillin-sensitive S. aureus (MSSA); test: In vitro MIC against isolates of MSSA; type: cell-based, Staphylococcus aureus
Helicobacter pylori = test: In vitro MIC against multiple isolates of H. pylori; type: cell-based; conditions: for MIC: read-out: MIC
[8] = tested on: community-acquired methicillin-resistant S. aureus (MRSA-CA); test: In vitro MIC against isolates of MRSA-CA; type: cell-based, Staphylococcus aureus
S. aureus = test: In vitro MIC testing, antibacterial spectrum of activity; type: cell-based, Staphylococcus aureus; conditions: for MIC50 / MIC90 / MIC: Staphylococcus aureus; for MIC50: read-out: MIC50; for MIC90: read-out: MIC90
[9] = tested on: Prevotella melaninogenica; test: In vitro MIC testing against anaerobic bacteria; type: cell-based
E. cloacae = test: In vitro MIC testing, antibacterial spectrum of activity; type: cell-based; conditions: Enterobacter cloacae; E. cloacae (30 isolates)
Chlamydia trachomatis [10] = test: In vitro susceptibility testing of Chlamydia trachomatis in HEp-2 cells (first study); type: cell-based; conditions: C. trachomatis strains
Salmonella Spp. = test: In vitro MIC testing, antibacterial spectrum of activity; type: cell-based; conditions: Salmonella
E. faecalis = test: as above; type: cell-based
Clostridium difficile = test: In vitro MIC testing against anaerobic bacteria; type: cell-based
Bacteroides fragilis = test: In vitro MIC testing against anaerobic bacteria; type: cell-based
[11] = Cutibacterium acnes, P. acnes [clinical isolates] (55 isolates)
[12] = Cutibacterium acnes, P. acnes [tetS] (13 isolates)
[13] = Staphylococcus aureus, MRSA-CA (33 isolates)
[14] = MRSA, S. aureus [MRSA] (31 isolates)
[15] = MSSA, S. aureus [MSSA] (32 isolates)

SMILES: CON(C)Cc1ccc(O)c2c1C[C@H]1C[C@H]3[C@H](N(C)C)C(O)=C(C(N)=O)C(=O)[C@@]3(O)C(O)=C1C2=O [The Active, (4S,4aS,5aR,12aS)-4-dimethylamino-3,10,12,12a-tetrahydroxy-7-[(methoxy(methyl)amino)-methyl]-1,11-dioxo-1,4,4a,5,5a,6,11,12a-octahydro-naphthacene-2-carboxylic acid amide]
- MIC 90% (Chlamydia pneumoniae; 72 h): 0.5 µg/mL (≈ 1.03 µM)
- MIC Range (Chlamydia pneumoniae; 72 h): 0.125 to 0.5 µg/mL
- MIC50 (Chlamydia pneumoniae; Chlamydia pneumoniae, 72 h): 0.25 µg/mL (≈ 0.513 µM)
- MIC90 (Chlamydia pneumoniae; Chlamydia pneumoniae, 72 h): 0.5 µg/mL (≈ 1.03 µM)
- MBC (Chlamydia pneumoniae; Chlamydia pneumoniae, after passage, read-out: MBC 90%): 0.25 µg/mL (≈ 0.513 µM)
- MBC 90% (Chlamydia pneumoniae; after passage): 0.25 µg/mL (≈ 0.513 µM)
- MBC Range (Chlamydia pneumoniae; after passage): 0.125 to 0.5 µg/mL
- MIC (Bifidobacterium longum): 4 µg/mL (≈ 8.2 µM)
- inhibition of the synthesis of cell wall, DNA, RNA and lipid components (Staphylococcus aureus): less than 20%
- maximum inhibition of incorporation of [3H]-leucine into proteins (Staphylococcus aureus): 80%
- MIC 90% (Chlamydia trachomatis [1]; 72 h): 0.125 µg/mL (≈ 0.256 µM)
- MIC Range (Chlamydia trachomatis [1]; 72 h): 0.03 to 0.125 µg/mL
- MIC50 (Chlamydia trachomatis [1]; Chlamydia trachomatis, 72 h): 0.06 µg/mL (≈ 0.123 µM)
- MIC90 (Chlamydia trachomatis [1]; Chlamydia trachomatis, 72 h): 0.125 µg/mL (≈ 0.256 µM)
- MBC (Chlamydia trachomatis [1]; Chlamydia trachomatis, after passage, read-out: MBC 90%): 0.125 µg/mL (≈ 0.256 µM)
- MBC 90% (Chlamydia trachomatis [1]; after passage): 0.125 µg/mL (≈ 0.256 µM)
- MBC Range (Chlamydia trachomatis [1]; after passage): 0.03 to 0.125 µg/mL
- IC50 [2]: 8.3 ± 0.18 µM
- MIC [3]: 0.25 µg/mL (≈ 0.513 µM)
- MIC ([3]; Peptostreptococcus micros 3545, read-out: MIC): 1 µg/mL (≈ 2.05 µM)
- MIC (P. acnes; Cutibacterium acnes): > 8 µg/mL
- MIC50 (P. acnes; [11]): 0.5 µg/mL (≈ 1.03 µM)
- MIC90 (P. acnes; [11]): 4 µg/mL (≈ 8.2 µM)
- MIC50 (P. acnes; [12]): 0.5 µg/mL (≈ 1.03 µM)
- MIC90 (P. acnes; [12]): 2 µg/mL (≈ 4.1 µM)
- MIC Range (P. acnes; P. acnes [clinical isolates] (55 isolates)): 0.5 to 16 µg/mL
- MIC Range (P. acnes; P. acnes [tetS] (2 isolates)): 0.25 to 1 µg/mL
- MIC Range (P. acnes; P. acnes [tetS] (13 isolates)): 0.25 to 4 µg/mL
- MIC ([4]; Peptostreptococcus anaerobius 3526): 2 µg/mL (≈ 4.1 µM)
- MIC ([4]; Peptostreptococcus anaerobius 3531): 4 µg/mL (≈ 8.2 µM)
- MIC ([5]; ATCC27823, Streptococcus constellatus 1202, ATCC 27823, read-out: MIC): 32 µg/mL (≈ 65.6 µM)
- MIC ([5]; Streptococcus constellatus, S. constellatus, summary of Table 1, read-out: MIC, high MIC values): > 16 µg/mL
- MIC Range [6]: 0.25 to 0.5 µg/mL
- MIC50 ([6]; Staphylococcus aureus): 0.25 µg/mL (≈ 0.513 µM)
- MIC90 ([6]; Staphylococcus aureus): 0.5 µg/mL (≈ 1.03 µM)
- MIC90 ([7]; MSSA (34 isolates)): 1.0 µg/mL (≈ 2.05 µM)
- MIC Range ([7]; MSSA (34 isolates)): 0.25 to 16 µg/mL
- MIC50 ([7]; Staphylococcus aureus, MSSA (34 isolates)): 0.25 µg/mL (≈ 0.513 µM)
- MIC90 ([7]; Staphylococcus aureus, MSSA (34 isolates), read-out: MIC90): 1 µg/mL (≈ 2.05 µM)
- MIC ([7]; Staphylococcus aureus, single strain of doxycycline-resistant MSSA): 16 µg/mL (≈ 32.8 µM)
- MIC Range (Helicobacter pylori; H. pylori clinical isolate summary): 1 to 8 µg/mL
- concentration inhibiting 12 out of 13 strains (Helicobacter pylori; H. pylori, 12 out of 13 strains): 1 to 2 µg/mL
- concentration inhibiting all test strains (Helicobacter pylori; H. pylori, all 13 test strains): ≤ 8 µg/mL
- MIC (Helicobacter pylori; Helicobacter pylori, ATCC43504, H. pylori reference strain, culture No. 3718, ATCC 43504): 2 µg/mL (≈ 4.1 µM)
- MIC (Helicobacter pylori; Helicobacter pylori, ATCC700824, H. pylori reference strain, culture No. 3719, ATCC 700824): 2 µg/mL (≈ 4.1 µM)
- MIC (Helicobacter pylori; Helicobacter pylori, ATCCBAA945, H. pylori reference strain, culture No. 3720, ATCC BAA-945): 1 µg/mL (≈ 2.05 µM)
- MIC (Helicobacter pylori; Helicobacter pylori, H. pylori clinical isolate, culture No. 4368): 2 µg/mL (≈ 4.1 µM)
- MIC (Helicobacter pylori; Helicobacter pylori, H. pylori clinical isolate, culture No. 4369): 8 µg/mL (≈ 16.4 µM)
- MIC (Helicobacter pylori; Helicobacter pylori, H. pylori clinical isolate, culture No. 4370): 2 µg/mL (≈ 4.1 µM)
- MIC (Helicobacter pylori; Helicobacter pylori, H. pylori clinical isolate, culture No. 4371): 2 µg/mL (≈ 4.1 µM)
- MIC (Helicobacter pylori; Helicobacter pylori, H. pylori clinical isolate, culture No. 4372): 1 µg/mL (≈ 2.05 µM)
- MIC (Helicobacter pylori; Helicobacter pylori, H. pylori clinical isolate, culture No. 4374): 2 µg/mL (≈ 4.1 µM)
- MIC (Helicobacter pylori; Helicobacter pylori, H. pylori clinical isolate, culture No. 4375): 2 µg/mL (≈ 4.1 µM)
- MIC (Helicobacter pylori; Helicobacter pylori, H. pylori clinical isolate, culture No. 4377): 1 µg/mL (≈ 2.05 µM)
- MIC (Helicobacter pylori; Helicobacter pylori, H. pylori clinical isolate, culture No. 4503): 2 µg/mL (≈ 4.1 µM)
- MIC (Helicobacter pylori; Helicobacter pylori, H. pylori clinical isolate, culture No. 4504): 1 µg/mL (≈ 2.05 µM)
- MIC90 (Helicobacter pylori; Helicobacter pylori, H. pylori, MIC for 90% of clinical test isolates, read-out: MIC90): 2 µg/mL (≈ 4.1 µM)
- MIC50 (Helicobacter pylori; Helicobacter pylori, read-out: MIC50): 2 µg/mL (≈ 4.1 µM)
- MIC Range ([8]; MRSA-CA (33 isolates)): 0.12 to 8 µg/mL
- MIC50 [8, 13]: 0.25 µg/mL (≈ 0.513 µM)
- MIC90 [8, 13]: 0.5 µg/mL (≈ 1.03 µM)
- MIC ([8]; Staphylococcus aureus, single strain of doxycycline-resistant MRSA-CA): 8 µg/mL (≈ 16.4 µM)
- MIC Range (S. aureus; S. aureus [MRSA] (31 isolates)): 0.25 to 4 µg/mL
- MIC Range (S. aureus; S. aureus [MSSA] (32 isolates)): 0.25 to 16 µg/mL
- MIC Range (S. aureus; S. aureus [tetR] (10 isolates)): 0.125 to 32 µg/mL
- MIC Range (S. aureus; S. aureus [tetS] (20 isolates)): ≦0.06-0.25 μg/mL
- MIC50 (S. aureus; [14]): 0.25 µg/mL (≈ 0.513 µM)
- MIC90 (S. aureus; [14]): 0.5 µg/mL (≈ 1.03 µM)
- MIC50 (S. aureus; [15]): 0.5 µg/mL (≈ 1.03 µM)
- MIC90 (S. aureus; [15]): 0.5 µg/mL (≈ 1.03 µM)
- MIC50 (S. aureus; S. aureus [tetR] (10 isolates)): 4 µg/mL (≈ 8.2 µM)
- MIC90 (S. aureus; S. aureus [tetR] (10 isolates)): 16 µg/mL (≈ 32.8 µM)
- MIC50 (S. aureus; S. aureus [tetS] (20 isolates)): 0.125 µg/mL (≈ 0.256 µM)
- MIC90 (S. aureus; S. aureus [tetS] (20 isolates)): 0.25 µg/mL (≈ 0.513 µM)
- MIC (S. aureus; S. aureus strain PBS # 1309, tetK): 0.5 µg/mL (≈ 1.03 µM)
- MIC (S. aureus; S. aureus strain PBS # 1310, tetM): 8 µg/mL (≈ 16.4 µM)
- MIC (S. aureus; S. aureus strain PBS # 1739, tet38): 4 µg/mL (≈ 8.2 µM)
- MIC ([9]; Prevotella melaninogenica 3437, read-out: MIC): 32 µg/mL (≈ 65.6 µM)
- MIC ([9]; Prevotella melaninogenica 3443, read-out: MIC): 4 µg/mL (≈ 8.2 µM)
- MIC50 (E. cloacae): 32 µg/mL (≈ 65.6 µM)
- MIC90 (E. cloacae): > 64 µg/mL
- MIC Range (Chlamydia trachomatis [10]): 0.06 to 0.125 µg/mL
- MIC90 (Chlamydia trachomatis [10]; Chlamydia trachomatis, read-out: MIC at which 90% of the strains were inhibited (MIC90)): 0.125 µg/mL (≈ 0.256 µM)
- MBC (Chlamydia trachomatis [10]; Chlamydia trachomatis, read-out: minimum bactericidal concentration at which 90% of the strains were inhibited (MBC90)): 0.125 µg/mL (≈ 0.256 µM)
- MIC90 (Salmonella Spp.): > 64 µg/mL
- MIC Range (E. faecalis; E. faecalis [VSE] (31 isolates)): 0.25 to 32 µg/mL
- MIC Range (E. faecalis; E. faecalis [tetR] (6 isolates)): 8 to 32 µg/mL
- MIC (E. faecalis; Enterococcus faecalis, E. faecalis strain PBS # 274, tetL): 32 µg/mL (≈ 65.6 µM)
- MIC (E. faecalis; Enterococcus faecalis, E. faecalis strain PBS # 276, tetM): 16 µg/mL (≈ 32.8 µM)
- MIC (E. faecalis; Enterococcus faecalis, E. faecalis strain PBS # 949, tetS): 8 µg/mL (≈ 16.4 µM)
- MIC50 (E. faecalis; Enterococcus faecalis, E. faecalis [VSE] (31 isolates), read-out: MIC50): 32 µg/mL (≈ 65.6 µM)
- MIC90 (E. faecalis; Enterococcus faecalis, E. faecalis [VSE] (31 isolates), read-out: MIC90): 32 µg/mL (≈ 65.6 µM)
- MIC (Clostridium difficile; Clostridioides difficile): 0.12 µg/mL (≈ 0.246 µM)
- MIC (Clostridium difficile; Clostridium difficile 3584): 0.12 µg/mL (≈ 0.246 µM)
- MIC (Bacteroides fragilis; Bacteroides fragilis 3374): 0.12 µg/mL (≈ 0.246 µM)
- MIC (Bacteroides fragilis; Bacteroides fragilis 3479): 16 µg/mL (≈ 32.8 µM)
